SMILES strings stand for the structures.

From patent US9128079B2, “Methods of using lung or bronchial epithelial cells to identify bitter taste modulators” (The Coca-Cola Company, priority 2011, dated 2015) come the findings set out here.

The subject of test [1] is 16HBE cells. Put plainly: FLIPR calcium flux assay, intracellular calcium release on tastant addition. The following applies: increasing concentrations of tastant, calcium-sensitive dye, FIG. 2. It is filed as cell-based, human. The protocol: Calcium flux assays were performed as previously described in Strachan et al., “Ribosomal S6 kinase 2 directly phosphorylates the 5-hydroxytryptamine 2A (5-HT2A) serotonin receptor, thereby modulating 5-HT2A signaling,” J Biol Chem 284:5557-5573 (2009). 16-HBE cells were trypsinized, counted, and seeded onto clear-bottomed 96 well plates (Greiner Bio-One; Monroe, N.C.) pre-coated with poly-D-lysine, at a density of […]. After a 24 hour incubation, media was removed and replaced with a Ca^2+ assay buffer (20 mM HEPES, lx HBSS, 2.5 mM probenecid, and Ca^2+ assay dye, pH 7.4) (FLIPR® Calcium Assay Kit; Molecular Device Corp, Sunnyvale, Calif.). After a 1-hour incubation at 37° C., during which the cells were allowed to take up the dye, fluorescence responses of cells were measured with a FLIPRTETRA (Molecular Device Corp; Sunnyvale, Calif.) device upon the addition of variable concentrations of tastant, or vehicle, in the presence of assay buffer (20 mM HEPES, pH 7.4, 1× Hanks Balanced Salt [Invitrogen; Carlsbad, Calif.] and 2.5 mM probenecid). After data acquisition, a subsequent addition of […] was injected into each well, and fluorescence was measured again. […] The cells were loaded with fluorescent calcium-sensitive dye, treated with a variety of tastants, and monitored for intracellular calcium release with a FLIPR imaging device.
Background: A change in cytosolic calcium serves as a functional read-out for many receptors and channels.

The subject of test [2] is 16HBE cells. The test can be described thus: GloSensor cAMP assay, inhibition of forskolin-stimulated cAMP production. The following applies: increasing concentrations, GloSensor luminescence, FIG. 3. It is filed as cell-based, human. As for the experimental part: Also shown is that overexpression of the wildtype form of RGS21 blunts bitter signaling and increases cAMP levels. Inhibition of forskolin-stimulated cAMP production by treatment with indicated concentrations of denatonium-B was determined 24 hours post-transfection by detection of Promega's cAMP GloSensor-dependent luminescence. Twenty-four hours post-transfection, cells were re-plated on poly-D-lysine-treated, clear-bottom, white 384-well plates at a density of 15,000 cells/well. Forty-eight hours post-transfection, culture medium was aspirated and cells were washed once with assay medium (DMEM (without FBS or phenol), 15 mM HEPES pH 7.4) before being incubated for 2 hours with 20 ill/well of equilibration medium (assay medium with 4% GloSensor™ substrate (Promega; Madison, Wis.)). After two hours, 10 μl of 3× final concentration denatonium benzoate (diluted in 3 μM forskolin-containing assay medium) was added to each well and allowed to incubate for 10 minutes before GloSensor™ emission was read on a MicroBeta Plate Counter (PerkinElmer; Waltham, Mass.). Before plotting, luminescence counts were normalized to 100% maximal response for each condition to account for variability in GloSensor™ expression, transfection efficiency, and the exact number of cells per well.
(In general: Changes in cAMP serve as a functional read-out for many G protein-coupled receptors.)

Turning to `CC[N+](CC)(CC(=O)Nc1c(C)cccc1C)Cc1ccccc1` [denatonium-B, denatonium benzoate], the “intracellular calcium response of 16HBE cells” value in the test on 16HBE cells [1] is on record as “increase in intracellular calcium”. Further, in the test on 16HBE cells [2], the “intracellular cyclic AMP concentration in 16HBE cells” value was “decreasing the concentration of intracellular cyclic AMP”.
